In patent US20260042764A1, “COMPOSITIONS AND METHODS FOR INHIBITION OF KRAS” (TheRas, Inc., priority 2022, published 2026):

Key:
[1] = biological target: T1, Avi-KRAS G12D (1-169) GppNHp/RAF1 RBD-3xFLAG (52-151) (Homo sapiens, UniProt P01116, G12D); experiment: Raf1-KRAS G12D-GppNHP disruption HTRF assay (Biological Example 1); assay type: binding
T1 construct: Avi-KRAS G12D (1-169)
Outline: (§1)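 Measured with a KRAS/RAF1 HTRF assay at pH 7.5 in 10% DMSO, with two 1 h room-temperature incubations with shaking.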

[2] = biological target: T2, Avi-KRAS G12R (1-169) GppNHp/RAF1 RBD-3xFLAG (52-151) (Homo sapiens, UniProt P01116, G12R); experiment: Raf1-KRAS G12R-GppNHP disruption HTRF assay (Biological Example 1); assay type: binding
T2 construct: Avi-KRAS G12R (1-169)
Outline: as §1

[3] = biological target: T3, Avi-KRAS G12V (1-169) GppNHp/RAF1 RBD-3xFLAG (52-151) (Homo sapiens, UniProt P01116, G12V); experiment: Raf1-KRAS G12V-GppNHP disruption HTRF assay (Biological Example 1); assay type: binding
T3 construct: Avi-KRAS G12V (1-169)
Outline: as §1

[4] = biological target: T4, Avi-KRAS WT (1-169) GppNHp/RAF1 RBD-3xFLAG (52-151) (Homo sapiens, UniProt P01116); experiment: Raf1-KRAS WT-GppNHP disruption HTRF assay (Biological Example 1); assay type: binding
T4 construct: Avi-KRAS WT (1-169)
Outline: as §1

GP2d cells (KRAS G12D) = experiment: Cell-based pERK HTRF assay in GP2d cell (Biological Example 2); conditions: GP2d, GP2d (KRAS G12D) cells, pERK HTRF
Outline: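 HTRF read-out of pERK (excitation 320 nm, emission 615 nm) after lysates sat 4–24 h at room temperature with Eu cryptate and d2 antibodies.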

SW620 cells (KRAS G12V) = experiment: Cell-based pERK HTRF assay in SW620 cell (Biological Example 4); conditions: Homo sapiens, SW-620, SW620 (KRAS G12V) cells, pERK HTRF
Outline: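 This assay measures inhibition of ERK phosphorylation downstream of KRAS G12V in intact SW620 cells. Compounds are applied for 4 h over nine half-log concentrations starting at 1 μM, and pERK is quantified by HTRF.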

[5] = KRAS G12D, GppNHp-loaded, class symbols
[6] = KRAS G12R, GppNHp-loaded, class symbols
[7] = KRAS G12V, GppNHp-loaded, class symbols
[8] = KRAS WT, GppNHp-loaded, class symbols

T1 sequence (P01116 1-169 isoform P01116-2 G12D): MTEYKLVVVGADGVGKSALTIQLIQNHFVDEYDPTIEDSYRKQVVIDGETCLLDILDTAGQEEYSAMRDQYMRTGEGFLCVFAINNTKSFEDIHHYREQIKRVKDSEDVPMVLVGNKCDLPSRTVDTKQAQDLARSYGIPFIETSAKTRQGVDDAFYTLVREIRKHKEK
T4 sequence (P01116 1-169 isoform P01116-2): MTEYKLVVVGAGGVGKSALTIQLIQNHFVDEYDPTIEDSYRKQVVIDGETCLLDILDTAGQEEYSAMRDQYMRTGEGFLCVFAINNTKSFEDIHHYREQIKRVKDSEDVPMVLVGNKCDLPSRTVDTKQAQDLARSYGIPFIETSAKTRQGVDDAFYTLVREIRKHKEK
T2 sequence (P01116 1-169 isoform P01116-2 G12R): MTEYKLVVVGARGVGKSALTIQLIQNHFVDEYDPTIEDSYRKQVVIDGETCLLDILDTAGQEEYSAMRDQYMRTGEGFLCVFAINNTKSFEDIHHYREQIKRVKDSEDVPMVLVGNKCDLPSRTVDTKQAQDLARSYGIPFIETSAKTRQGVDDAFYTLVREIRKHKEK
T3 sequence (P01116 1-169 isoform P01116-2 G12V): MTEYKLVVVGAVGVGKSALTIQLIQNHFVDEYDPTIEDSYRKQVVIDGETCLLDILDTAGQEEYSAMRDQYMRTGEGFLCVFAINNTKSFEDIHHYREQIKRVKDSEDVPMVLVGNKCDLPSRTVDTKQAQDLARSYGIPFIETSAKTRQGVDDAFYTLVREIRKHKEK

Row | SMILES | IC50 [1, 5] | IC50 [2, 6] | IC50 [3, 7] | IC50 [4, 8] | IC50 (GP2d cells (KRAS G12D); class symbols) | IC50 (SW620 cells (KRAS G12V); class symbols) | IC50 ([1]; KRAS G12D-GppNHp/RAF1 RBD HTRF) | IC50 ([2]; KRAS G12R-GppNHp/RAF1 RBD HTRF) | IC50 ([3]; KRAS G12V-GppNHp/RAF1 RBD HTRF) | IC50 ([4]; KRAS WT-GppNHp/RAF1 RBD HTRF) | IC50 (GP2d cells (KRAS G12D)) | IC50 (SW620 cells (KRAS G12V))
1 | CN(C)C(=O)N1CC[C@H](N(c2nc(OC[C@@]34CCCN3C[C@H](F)C4)nc3c(F)c(-c4ccc(F)c5sc(N)c(C#N)c45)c(C(F)(F)F)cc23)C2CC2)C1 (atropisomer, axis not shown) [Compound 743] | 100 to 1000 nM | 100 to 1000 nM | 100 to 1000 nM | 100 to 1000 nM | < 100 nM | < 100 nM | – | – | – | – | – | –
2 | CC[C@@H]1[C@H](N(C)c2nc(OC[C@@]34CCCN3C[C@H](F)C4)nc3c(F)c(-c4ccc(F)c5sc(N)c(C#N)c45)c(C(F)(F)F)cc23)CCN1C(=O)C(C)C [Compound 433] | – | – | – | – | – | – | 1000 to 10000 nM | 1000 to 10000 nM | 1000 to 10000 nM | 1000 to 10000 nM | 100 to 1000 nM | 100 to 1000 nM
3 | CC#CC(=O)N1CC[C@H](N(CC)c2nc(OC[C@@]34CCCN3C[C@H](F)C4)nc3c(F)c(-c4ccc(F)c5sc(N)c(C#N)c45)c(C(F)(F)F)cc23)C1 (atropisomer, axis not shown) [Compound 679] | < 100 nM | < 100 nM | < 100 nM | < 100 nM | < 100 nM | < 100 nM | – | – | – | – | – | –
4 | CC(=O)N1CC[C@H]2[C@@H]1CN2c1nc(OC[C@@]23CCCN2C[C@H](F)C3)nc2c(F)c(-c3ccc(F)c4sc(N)c(C#N)c34)c(C(F)(F)F)cc12 (atropisomer, axis not shown) [Compound 641] | 1000 to 10000 nM | 1000 to 10000 nM | 1000 to 10000 nM | 100 to 1000 nM | < 100 nM | < 100 nM | – | – | – | – | – | –
5 | CN1C[C@@H](N(C)c2nc(OC[C@@]34CCCN3C[C@H](F)C4)nc3c(F)c(-c4ccc(F)c5sc(N)c(C#N)c45)c(C(F)(F)F)cc23)CC1=O [Compound 338] | – | – | – | – | – | – | 100 to 1000 nM | 100 to 1000 nM | 100 to 1000 nM | 100 to 1000 nM | < 100 nM | < 100 nM
6 | COC[C@H]1CN(c2nc(OC[C@@]34CCCN3C[C@H](F)C4)nc3c(F)c(-c4ccc(F)c5sc(N)c(C#N)c45)c(C(F)(F)F)cc23)CCO1 [Compound 283] | – | – | – | – | – | – | 100 to 1000 nM | 100 to 1000 nM | 100 to 1000 nM | 100 to 1000 nM | < 100 nM | < 100 nM
7 | CC(=O)N1C[C@H]2OCCN(c3nc(OC[C@@]45CCCN4C[C@H](F)C5)nc4c(F)c(-c5ccc(F)c6sc(N)c(C#N)c56)c(C(F)(F)F)cc34)[C@H]2C1 [Compound 480] | – | – | – | – | – | – | 1000 to 10000 nM | 1000 to 10000 nM | 1000 to 10000 nM | 1000 to 10000 nM | < 100 nM | < 100 nM
8 | C[C@@H]1[C@H](N(C)c2nc(OC[C@@]34CCCN3C[C@H](F)C4)nc3c(F)c(-c4ccc(F)c5sc(N)c(C#N)c45)c(C(F)(F)F)cc23)CCN1C(=O)C(C)(C)C [Compound 312] | – | – | – | – | – | – | 100 to 1000 nM | 100 to 1000 nM | 100 to 1000 nM | 100 to 1000 nM | < 100 nM | < 100 nM
9 | CCN(c1nc(OC[C@@]23CCCN2C[C@H](F)C3)nc2c(F)c(-c3ccc(F)c4sc(N)c(C#N)c34)c(C(F)(F)F)cc12)[C@H]1C[C@@H](COC)N(C(=O)N(C)C)C1 (atropisomer, axis not shown) [Compound 713] | 100 to 1000 nM | 100 to 1000 nM | 100 to 1000 nM | 100 to 1000 nM | < 100 nM | < 100 nM | – | – | – | – | – | –
10 | C[C@@H]1[C@H](N(C)c2nc(OC[C@@]34CCCN3C[C@H](F)C4)nc3c(F)c(-c4ccc(F)c5sc(N)c(C#N)c45)c(C(F)(F)F)cc23)CCN1C(=O)C(C)(F)F [Compound 459] | – | – | – | – | – | – | 100 to 1000 nM | 100 to 1000 nM | 100 to 1000 nM | 100 to 1000 nM | < 100 nM | < 100 nM
11 | CCN(c1nc(OCC23CCCN2CC(F)C3)nc2c(F)c(-c3ccc(F)c4sc(N)c(C#N)c34)c(C(F)(F)F)cc12)C1CCN(C(=O)c2oncc2C)C1 (stereo not drawn) [Compound 804] | < 100 nM | < 100 nM | < 100 nM | < 100 nM | < 100 nM | < 100 nM | – | – | – | – | – | –
